The subject of one assay is rat. The assay is described as follows: animal or person. It is filed as in vivo. The note with it: for ED50: Rattus norvegicus, 0.25 h, read-out: ED50 (95% CI) second pharmacologically active ingredient.
The test system of another assay is male Sprague-Dawley rats. The note with it: rat, in vivo.

Where “and” joins values, the source holds several entries; their conditions need not be identical. Equal entries are not always repeated. Structures can show the parent of a compound that is named as a salt.

What is called ED50 is the midpoint of the dose-response relation. `CC[C@@H](C(N)=O)N1CCCC1=O` [Levetiracetam, levetiracetam]: the median effective dose (ED50) in the assay with rat (ip) amounted to 986 mg/kg. Moreover, the “timepoint of peak effect” value in the assay on rat (rat, in vivo) was determined as 15 min p. appl.

With `Nc1nnc(-c2cccc(Cl)c2Cl)c(N)n1` [lamotrigine], the 50% effective dose (ED50) in the assay on rat (ip) was found to be 30 mg/kg. Moreover, in the assay with rat (rat, in vivo), the “timepoint of peak effect” value is 15 min p. appl. For the same compound, the “ED50 (95% CI) second pharmacologically active ingredient” value in the assay on rat (rat, in vivo, ip) is 35253 μg/kg and 35253 (38082-32740) μg/kg.

For `COC[C@@H](NC(C)=O)C(=O)NCc1ccccc1` [lacosamide], in the assay with rat (ip), the ED50 worked out at 35.3 mg/kg. In addition, the “timepoint of peak effect” value in the assay with rat (rat, in vivo) worked out at 15 min p. appl.

For the compound `NC(=O)N1c2ccccc2C=Cc2ccccc21` [carbamazepine], in the assay on rat (ip), the ED50 is 30 mg/kg. The “timepoint of peak effect” value in the assay with rat (rat, in vivo) came out at 15 min p. appl.

Turning to `CCOC(=O)Nc1ccc(NCc2ccc(F)cc2)cc1N` [retigabine dihydrochloride], in the assay on male Sprague-Dawley rats, the “% MPE (Maximum possible effect) 60 min.” value is −2.0 ± 7.9 % MPE and the “% MPE (Maximum possible effect) 180 min.” value is recorded as −2.8 ± 8.0 % MPE. Further, in the assay on male Sprague-Dawley rats (dihydrochloride), the “% MPE (Maximum possible effect) 30 min.” value was 23.1 % MPE and 23.1 ± 5.0 % MPE. Further, the ED50 with rat (ip) stood at 5.09 mg/kg. Further, the “timepoint of peak effect” value in the assay on rat (rat, in vivo) came out at 15 min p. appl.

The record behind these values is patent US20130317009A1 (priority 2012, published 2013).
